Test results as given in article PMC4890880 (ACS infectious diseases, 2016).
Where two headings read alike, the source gives them in different places.

Experiments:
HepG2-A16-CD81EGFP cells = assay: cells; settings: Homo sapiens; for IC50: HepG2, read-out: Tox IC50; for inhibition at 50 µM: HepG2, read-out: Tox max inhibition (%) @ 50 uM
[1] = tested on: Plasmodium berghei (Pb-Luc) exoerythrocytic-stage parasites; assay: microbe, parasite or virus in culture
[2] = HepG2, read-out: HepG2 Tox% @ 50 uM rep1
[3] = HepG2, read-out: HepG2 Tox% @ 50 uM rep2
[4] = read-out: Inhibition% @ 50 uM rep1
[5] = read-out: Inhibition% @ 50 uM rep2
[6] = read-out: PbLuc IC50, dose response, 1/3 dilutions, max conc. 10 or 50 uM, unit inferred
[7] = read-out: PbLuc max inhibition (%) @ 50 uM

Row | Compound | cytotoxicity at 50 µM (HepG2-A16-CD81EGFP cells; [2]) | cytotoxicity at 50 µM (HepG2-A16-CD81EGFP cells; [3]) | IC50 (HepG2-A16-CD81EGFP cells) | inhibition at 50 µM (HepG2-A16-CD81EGFP cells) | inhibition at 50 µM [1, 4] | inhibition at 50 µM [1, 5] | IC50 [1, 6] | inhibition at 50 µM [1, 7] | IC50 ([1]; read-out: PbLuc IC50, dose response, unit inferred)
1 | CCN(CC)CCn1c(=N)n(CC(O)c2ccc(Cl)c(Cl)c2)c2ccccc21 (stereo not shown) [MMV000248] | 101% | 102% | 27.1 µM | 98% | 103% | 105% | 8.5 µM | 99% | –
2 | Cc1ccc2nc(C)cc(Nc3cccc(C(F)(F)F)c3)c2c1 [MMV000326] | 100% | – | – | – | 103% | 103% | – | – | –
3 | Oc1ccc(Br)cc1CN1CCN(Cc2cccc(F)c2)CC1 [MMV000356] | 64% | – | – | – | 100% | 92% | – | – | –
4 | CC(C)(C)c1ccc2c(c1)CN(Cc1ccc(Cl)cc1)CO2 [MMV000442] | 97% | – | – | – | 100% | 101% | – | – | –
5 | CCCCCCn1c(=N)n(CC(O)COc2cccc(C)c2)c2ccccc21 (stereo not shown) [MMV000445] | 99% | – | 13.7 µM | 99% | 102% | 103% | 4.75 µM | 100% | –
6 | CC(O)(c1ccc(Cl)cc1)C(CN1CCCCC1)c1ccccc1 (stereo not shown) [MMV000620] | 63% | 90% | – | – | 101% | 102% | – | – | –
7 | COc1ccc(NC(=O)C2c3ccccc3C(=O)N(CC(C)C)C2c2cccs2)cc1Cl (stereo not shown) [MMV000642] | 50% | 30% | > 50 µM | 24% | 104% | 106% | 17 µM | 97% | –
8 | COc1ccc(NC(=O)C2c3ccccc3C(=O)N(CC(C)C)C2c2cccs2)cc1 (stereo not shown) [MMV000662] | 37% | 50% | > 50 µM | 37% | 102% | 106% | 17.5 µM | 98% | –
9 | Cc1ccc(C2CC(C(F)(F)F)n3nc(C(=O)N4CCN(C(c5ccccc5)c5ccccc5)CC4)cc3N2)cc1 (stereo not shown) [MMV000699] | 49% | – | – | – | 102% | 101% | – | – | –
10 | CCOC(=O)c1cnc2ccc(OC)cc2c1Nc1ccc(N2CCN(C)CC2)cc1 [MMV000704] | 97% | – | – | – | 101% | 102% | – | – | –
11 | Cc1ccnc(NC(c2cccc(OCc3ccccc3)c2)c2ccc3cccnc3c2O)c1 (stereo not shown) [MMV000720] | 99% | – | 5.05 µM | 99% | 103% | 103% | 1.28 µM | 100% | –
12 | Oc1ccc(-c2nc(-c3ccc4oc5ccc(-c6[nH]c(-c7ccc(O)cc7)nc6-c6ccccc6)cc5c4c3)c(-c3ccccc3)[nH]2)cc1 [MMV000753] | 101% | – | > 50 µM | 39% | 104% | 104% | 5.88 µM | 99% | –
13 | Oc1c(CN2CCN(c3ccccc3F)CC2)cc(Br)c2cccnc12 [MMV000760] | 95% | – | 11.5 µM | 78% | 102% | 101% | 1.84 µM | 93% | –
14 | CCCOCc1cc(CN2CCN(c3cccc(Cl)c3)CC2)c(O)c2ncccc12 [MMV000787] | 93% | – | 3.49 µM | 100% | 100% | 100% | 0.94 µM | 101% | –
15 | CC(C)OCc1cc(CN2CCN(c3cccc(Cl)c3)CC2)c(O)c2ncccc12 [MMV000788] | 99% | 100% | 3.01 µM | 94% | 103% | 106% | 0.99 µM | 101% | –
16 | Cc1ccc(NC(=O)Nc2cccc(Cl)c2)cc1F [MMV000911] | 85% | 89% | – | – | 104% | 105% | – | – | –

Row | Compound | cytotoxicity at 50 µM (HepG2-A16-CD81EGFP cells; [2]) | cytotoxicity at 50 µM (HepG2-A16-CD81EGFP cells; [3]) | IC50 (HepG2-A16-CD81EGFP cells) | inhibition at 50 µM (HepG2-A16-CD81EGFP cells) | inhibition at 50 µM [1, 4] | inhibition at 50 µM [1, 5] | IC50 [1, 6] | inhibition at 50 µM [1, 7] | IC50 ([1]; read-out: PbLuc IC50, dose response, unit inferred)
17 | CC(C)c1ccc(CNCC(O)c2ccccc2)cc1 (stereo not shown) [MMV001049] | 96% | 97% | – | – | 100% | 102% | – | – | –
18 | CC1CC(C)CN(C(=O)c2ccc(Cl)cc2Cl)C1 (stereo not shown) [MMV001344] | 74% | 88% | – | – | 98% | 98% | – | – | –
19 | CCN(CC)CCNc1ccnc2cc(Cl)ccc12 [MMV006087] | 53% | 87% | – | – | 101% | 103% | – | – | –
20 | c1ccc(CNc2nc(Nc3ccccc3)nc3ccccc23)cc1 [MMV006169] | 101% | – | – | – | 103% | 104% | – | – | –
21 | CN1CCN(c2ccc(Nc3c4ccccc4nc4ccccc34)cc2)CC1 [MMV006172] | 97% | 99% | 5.18 µM | 94% | 104% | 106% | 3.44 µM | 99% | –
22 | Cc1cc(NCCN2CCCCC2)c2ccc3ccccc3c2n1 [MMV006203] | 93% | 95% | – | – | 99% | 101% | – | – | –
23 | CCN(CC)CCNc1ccnc2cc3ccccc3cc12 [MMV006303] | 99% | – | 42.6 µM | 92% | 102% | 103% | 20.8 µM | 98% | –
24 | Cc1cc(Nc2cccc(F)c2)nc(NCc2ccccc2)n1 [MMV006319] | 99% | 102% | – | – | 104% | 106% | – | – | –
25 | COc1cc(OC)c(N(C)C(=O)c2cc3c(s2)-c2ccccc2S(=O)(=O)C3)cc1Cl [MMV006427] | 53% | 52% | > 50 µM | 39% | 99% | 102% | 11 µM | 97% | –
26 | Cc1cc(NC(=O)C2c3ccccc3C(=O)N(CC(C)C)C2c2cccs2)no1 (stereo not shown) [MMV006429] | 15% | 18% | > 50 µM | 18% | 103% | 104% | – | 96% | 21.4 µM
27 | c1ccc2c(NCCc3c[nH]c4ccccc34)c3ccccc3nc2c1 [MMV006513] | 97% | – | – | – | 98% | 101% | – | – | –
28 | CCN(CC)CCNc1ncnc2c1[nH]c1ccc(Br)cc12 [MMV006545] | 99% | 101% | – | – | 104% | 106% | – | – | –
29 | Cc1cc(C)c2c(c1)OCN(Cc1ccccc1Cl)C2 [MMV006558] | 100% | 100% | – | – | 104% | 105% | – | – | –
30 | Clc1ccc2[nH]c3c(NCCCN4CCOCC4)ncnc3c2c1 [MMV006587] | 95% | 98% | – | – | 101% | 100% | – | – | –
31 | CCOC(=O)C1=CN(C)C=C(C(=O)OCC)C1c1cc(Br)c(OCC)c(OC)c1 [MMV006656] | 50% | – | > 50 µM | 31% | 103% | 103% | 8.23 µM | 99% | –
